Reference: patent publication US20080182267A1, “METHOD FOR PREDICTING A DRUG TRANSPORT CAPABILITY BY ABCG2 POLYMORPHISMS” (BANYU PHARMACEUTICAL CO., Ltd., priority 2002, published 2008)

Key:
ABCG2 (wild type) = assay: Cytotoxicity by sulforhodamine B dye-staining, clone 1-58 (wild type ABCG2); conditions: pig
Description: (§1) Among the polymorphic mutations identified in Example 1, two mutations—G34A and C421A—having a high possibility to affect the function of the ABCG2 polypeptide were prepared and introduced into animal cells as an endeavor to analyze their functions. Preparation of the mutated ABCG2 genes was conducted by PCR and a point mutation was introduced. […] As a control, a plasmid expressing the wild type (WT) ABCG2 and the vector plasmid pcDNA3.1(+) alone without the ABCG2 gene were used and those four kinds of expression plasmids were introduced to an animal cell (porcine kidney cell line) LLC-PK1 by lipofection method (Lipofectamine; Gibco BRL). Stable transfectants were selected with 1,500 μg/ml of Geneticin (Gibco BRL) for two weeks and cell lines were established. To determine the expressed level of ABCG2 in each cell line, total RNA was extracted from each transfectant cells and HeLa cells with Trizol (Gibco BRL). Seven microgram of the total RNA extracted from each clone of cell and full length ABCG2 cDNA (2.2 kb) probe labeled with ^32P were used for Northern hybridization. […]
(§2) All of the incubations were carried out at 37° C. under the humidified atmosphere containing 5% of carbon dioxide. The cytotoxicity of anticancer drugs was determined by sulforhodamine B dye-staining method and compared with each other. […]

[1] = tested on: LLC-PK1 cell line (1-58) expressing the wild type ABCG2; assay: as above; conditions: among the four transfectant clones C4, 1-58, 2-51, 3-28
Description: as §1, §2

ABCG2 (Val12Met mutant) = assay: Cytotoxicity by sulforhodamine B dye-staining, clone 2-51 (ABCG2 Val12Met); conditions: pig
Description: as §1, §2

ABCG2 (Gln141Lys mutant) = assay: Cytotoxicity by sulforhodamine B dye-staining, clone 3-28 (ABCG2 Gln141Lys); conditions: pig
Description: as §1, §2

[2] = tested on: LLC-PK1 cell line (C4) transfected with vector alone; assay: Cytotoxicity by sulforhodamine B dye-staining, clone C4 (vector alone); assay type: cell-based, porcine; conditions: Sus scrofa, no ABCG2, 72 hours, 37° C., read-out: IC50 for cell viability
Description: as §1, §2

CC[C@@]1(O)C(=O)OCc2c1cc1n(c2=O)Cc2cc3ccccc3nc2-1 [Camptothecin, camptothecin]
IC50 at 72 h (ABCG2 (wild type)): 0.0213 µM
difference in terms of the resistance among the cells [1]: no significant difference
IC50 at 72 h (ABCG2 (Val12Met mutant)): 0.0122 µM
IC50 at 72 h (ABCG2 (Gln141Lys mutant)): 0.0268 µM
IC50 [2]: 0.0087 µM
